Experimental data as given in patent US20130005568A1, “SAFENED HERBICIDAL MIXTURES” (E.I. DU PONT DE NEMOURS AND COMPANY, priority 2011, published 2013).

Legend:
[1] = tested on: Pioneer 39K40 hybrid maize; test: Test A: visual plant response rating, postemergence herbicide treatments alone and with Compound 1; format: in vivo, Zea mays L. spp. indentata Sturt.; details: Compound 1 alone 125 g ai/ha; Test A
Experimental: (§1) For all of the following biological tests, plant response ratings were based on a 0-100 scale where zero is growth equivalent to that of untreated plants (no plant response) and 100 represents no additional growth occurring after herbicide treatment.
Pioneer 39K40 hybrid maize used in this test (and also Tests B and C) is particularly sensitive to herbicides that inhibit the acetohydroxy acid synthase enzyme. Herbicide mixtures were dissolved/dispersed in a non-phytotoxic liquid carrier and were sprayed postemergence to Pioneer 39K40 hybrid maize (Zea mays L. spp. indentata Sturt.) in the third collar growth stage (extended leaf height was 50-60 cm). Treated plants were grown under greenhouse conditions for two weeks before visual evaluations of plant responses were recorded.

sorghum hybrid WL09-6001 = tested on: sorghum hybrid WL09-6001; design: species or system Sorghum bicolor (L.) Moench; details: in vivo
From the text: as §1
(§2) Cultivated sorghum varieties are generally very sensitive to acetohydroxy acid synthase-inhibiting herbicides such as rimsulfuron. To impart tolerance in sorghum hybrids WL09-6001 and WL09-6002 used in this test, plant breeders introduced a gene for acetohydroxy acid synthase (also known as acetolactate synthase) resistant to inhibition by certain acetohydroxy acid synthase-inhibiting herbicides, by breeding starting from a wild Sorghum genotype containing the resistance gene (see U.S. Patent Publication US 2008/0216187 A1).
(§3) Herbicide mixtures were formulated, dissolved/dispersed in water containing 1% crop oil concentrate, and sprayed postemergence to sorghum (Sorghum bicolor (L.) Moench) in the third collar growth stage (extended leaf height is 10-20 cm). Treated plants were grown under greenhouse conditions for two weeks before visual evaluations of plant responses were recorded.

sorghum hybrid WL09-6002 = tested on: sorghum hybrid WL09-6002; design: species or system Sorghum bicolor (L.) Moench; details: in vivo
From the text: as §1, §2, §3

blackgrass [2] = test: Test E: postemergence plant response rating; format: in vivo, Alopecurus myosuroides Huds.; details: Compound 1 alone 125 g ai/ha; Test E plants
From the text: as §1
(§4) Herbicide mixtures were formulated, dissolved/dispersed in water containing 0.25% non-ionic surfactant, sprayed postemergence to the crops: winter wheat (Triticum aestivum L.), spring wheat (Triticum aestivum L.), winter barley (Hordeum vulgare L.) and spring barley (Hordeum vulgare L.), and the weeds: blackgrass (Alopecurus myosuroides Huds.), lambsquarters (Chenopodium album L.) and pigweed (Amaranthus retroflexus L.). Treated plants were grown under greenhouse conditions for two weeks before visual evaluations of plant responses were recorded.

lambsquarters = test: Test E: postemergence plant response rating; format: in vivo, Chenopodium album L.; details: Compound 1 alone 125 g ai/ha; Test E plants
From the text: as §1, §4

pigweed = test: Test E: postemergence plant response rating; format: in vivo, Amaranthus retroflexus L.; details: Compound 1 alone 125 g ai/ha; Test E plants
From the text: as §1, §4

winter wheat = test: Test F: preemergence plant response rating; format: in vivo, Triticum aestivum L.; details: Compound 1 alone 125 g ai/ha; Test F plants
From the text: as §1
(§5) Herbicide mixtures were formulated, dissolved/dispersed in water, and sprayed preemergence to the crops: winter wheat (Triticum aestivum L.) and winter barley (Hordeum vulgare L.), and the weed: blackgrass (Alopecurus myosuroides Huds). Treated plants were grown under greenhouse conditions for three weeks before visual evaluations of plant responses were recorded.

blackgrass [3] = test: Test F: preemergence plant response rating; format: in vivo, Alopecurus myosuroides Huds; details: Compound 1 alone 125 g ai/ha; Test F plants
From the text: as §1, §5

Zoysia grass = test: Test G: turf grass and weed postemergence plant response rating; format: in vivo, Zoysia japonica Steud.; details: Compound 1 alone 125 g ai/ha; Test G plants
From the text: as §1
(§6) Plants of the turf grass species: zoysia (Zoysia japonica Steud.), bermudagrass (Cynodon dactylon (L.) Pers.), tall fescue (Festuca arundinacea Shreib.), creeping bentgrass (Agrostis stoonoifera L.), perennial ryegrass (Lolium perenne L.) and hard fescue (Festuca species) were grown under greenhouse conditions for four months. Plants were clipped as needed to plant heights of 5-10 cm. Weeds typically found in turf: annual bluegrass (Poa annua L.), common chickweed (Stellaria media (L.) Vill.), large crabgrass (Digitaria sanguinales (L.) Scop.), dandelion (Taraxacum officinale Weber in Wiggers), goosegrass (Eleusine indica (L.) Gaertn.), henbit (Lamium amplexicaule L.), venice mallow (Hibiscus trionium L.) and purple nutsedge (Cyperus rotundus L.) were also grown under greenhouse conditions so that plants were 5-20 cm tall when they were treated. Herbicide mixtures were formulated, dissolved/dispersed in water containing 0.25% non-ionic surfactant, and sprayed postemergence to these turf grasses and weeds. Treated plants were grown under greenhouse conditions for three weeks before visual evaluations of plant responses were recorded.

Creeping bentgrass = test: as above; format: in vivo, Agrostis stoonoifera L.; details: Compound 1 alone 125 g ai/ha; Test G plants
From the text: as §1, §6

Chickweed = test: as above; format: in vivo, Stellaria media (L.) Vill.; details: Compound 1 alone 125 g ai/ha; Test G plants
From the text: as §1, §6

Large crabgrass = test: as above; format: in vivo, Digitaria sanguinales (L.) Scop.; details: Compound 1 alone 125 g ai/ha; Test G plants
From the text: as §1, §6

Purple nutsedge = test: as above; format: in vivo, Cyperus rotundus L.; details: Compound 1 alone 125 g ai/ha; Test G plants
From the text: as §1, §6

soybean = test: Test I: postemergence plant response rating; format: in vivo, Glycine max (L.) Merr.; details: Compound 1 alone 125 g ai/ha; Test I plants
From the text: as §1
Herbicide mixtures were formulated, dissolved/dispersed in water containing 0.25% non-ionic surfactant, and sprayed postemergence to the crop: soybean (Glycine max (L.) Merr.) at the 2-leaf growth stage and to weeds: lambsquarters (Chenopodium album L.) and velvetleaf (Abutilon theophrasti Medik.). Weed species were 5-10 cm tall when treated. Treated plants were grown under greenhouse conditions for two weeks before visual evaluations of plant responses were recorded.

Surinam grass = test: Test K: pasture grass postemergence plant response rating, field conditions; format: in vivo, Brachiaria decumbens Stapf; details: Compound 1 alone 140 g ai/ha; Test K plants
From the text: as §1
Herbicide mixtures were formulated, dissolved/dispersed in water containing 0.25% non-ionic surfactant, and sprayed postemergence to the pasture grasses: Surinam grass (Brachiaria decumbens Stapf), palisade grass (Brachiaria brizantha (Hochst. ex A. Rich) Stapf) and Alexandergrass (Brachiaria plantaginea (Link) A. S. Hitchc.) approximately 10-30 cm tall (extended leaf height). This test was conducted under field conditions. Visual evaluations of plant responses were recorded four weeks after the plants were treated.

Measured: injury, Compound 1 alone

Cc1ccccc1S(=O)(=O)NC(N)=O [Compound 1, N-(aminocarbonyl)-2-methylbenzenesulfonamide]
no injury: all assays above
